According to US7935694B2, “Lactam compounds useful as protein kinase inhibitors” (Millennium Pharmaceuticals, Inc., priority 2004, dated 2011):

target: T1, recombinant murine Aurora A enzyme (Mus musculus, UniProt P97477); experiment: Aurora A DELFIA Kinase Assay; assay type: biochemical; details: 1 mM ATP, 20 nM enzyme, 10 minutes at room temperature
T1 construct: hexahistidine (His6) (N); made in house; host or cells: insect cells (baculovirus, Bac-to-Bac)
T1 sequence (P97477 1-395): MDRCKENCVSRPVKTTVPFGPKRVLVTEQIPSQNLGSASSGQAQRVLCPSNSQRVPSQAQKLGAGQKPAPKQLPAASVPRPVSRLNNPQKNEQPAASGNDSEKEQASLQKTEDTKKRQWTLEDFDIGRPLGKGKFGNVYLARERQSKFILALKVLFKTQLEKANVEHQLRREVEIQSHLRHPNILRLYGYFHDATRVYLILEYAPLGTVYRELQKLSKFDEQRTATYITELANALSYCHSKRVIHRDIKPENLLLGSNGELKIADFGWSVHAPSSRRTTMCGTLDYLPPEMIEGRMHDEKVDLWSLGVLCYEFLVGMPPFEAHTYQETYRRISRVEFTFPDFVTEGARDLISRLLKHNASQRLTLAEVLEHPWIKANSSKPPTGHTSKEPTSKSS
Description: Recombinant mouse Aurora A with an amino-terminus hexahistidine tag (His-Aurora A) was expressed using a standard baculovirus vector and insect cell expression system (Bac-to-Bac®, Invitrogen). Soluble, recombinant mouse Aurora A was purified from insect cells using Ni-NTA agarose (Qiagen) as described by the manufacturer and further purified over an S75 size exclusion column (Amersham Pharmacia Biotech). The mouse Aurora A enzymatic reaction totaled 25 μL and contained 25 mM Tris-HCl (pH 8.5), 2.5 mM MgCl2, 0.05% Surfact-AMPS-20, 5 mM Sodium Fluoride, 5 mM DTT, 1 mM ATP, 3 μM peptide substrate (Biotin-β-[…]), and 20 nM recombinant murine Aurora A enzyme. The enzymatic reaction mixture, with and without Aurora inhibitors, was incubated for 10 minutes at room temperature before termination with 100 μL of stop buffer (1% BSA, 0.05% Surfact-AMPS-20, and 100 mM EDTA). A total of 100 μL of the enzyme reaction mixture was transferred to wells of a Neutravidin-coated 96-well plate (Pierce) and incubated at room temperature for 30 minutes. The wells were washed with wash buffer (25 mM Tris, 150 mM sodium chloride, and 0.1% Tween 20) and incubated for 1 hour with 100 μL of antibody reaction mixture containing 1% BSA, 0.05% Surfact-AMPS-20, anti-phospho-PKA rabbit polyclonal antibody (1:2000, New England Biolabs), and europium labeled anti-rabbit IgG (1:2000, Perkin Elmer). The wells were washed and then the bound europium was liberated using 100 μL of Enhancement Solution (Perkin Elmer). Quantification of europium was done using a WallacTM EnVision (Perkin Elmer).

IC50 [nM]	Structure (SMILES)
≤ 500	NCCCCNC(=O)c1cccc(Nc2ncc3c(n2)-c2ccc(Cl)cc2NC(=O)C3)c1 [Compound I-64, N-(4-Amino-butyl)-3-(9-chloro-6-oxo-6,7-dihydro-5H-benzo[b]pyrimido[4,5-d]azepin-2-ylamino)-benzamide]
≤ 500	O=C1Cc2cnc(Nc3ccc(CCCN4CCCC4)cc3)nc2-c2ccc(Cl)cc2N1 [Compound I-66, 9-Chloro-2-[4-(3-pyrrolidin-1-yl-propyl)-phenylamino]-5H,7H-benzo[b]pyrimido[4,5-d]-azepin-6-one]
≤ 500	COc1ccc(Nc2ncc3c(n2)-c2ccc(Cl)cc2NC(=O)C3)cc1OC [Compound I-2, 9-Chloro-2-(3,4-dimethoxy-phenylamino)-5H,7H-benzo[b]pyrimido[4,5-d]azepin-6-one]
≤ 500	COc1ccc(Nc2ncc3c(n2)-c2ccc(I)cc2NC(=O)C3)cc1OC [Compound I-30, 2-(3,4-dimethoxy-phenylamino)-9-iodo-5H,7H-benzo[b]pyrimido[4,5-d]azepin-6-one]
≤ 500	COc1ccc(Nc2ncc3c(n2)-c2ccc(C#CCN)cc2NC(=O)C3)cc1OC [Compound I-38, 9-(3-Amino-prop-1-ynyl)-2-(3,4-dimethoxy-phenylamino)-5H,7H-benzo[b]pyrimido[4,5-d]azepin-6-one]
≤ 500	COc1ccc(Nc2ncc3c(n2)-c2ccc(C(=O)NCCCN)cc2NC(=O)C3)cc1OC [Compound I-72, 2-(3,4-Dimethoxy-phenylamino)-6-oxo-6,7-dihydro-5H-benzo[b]pyrimido[4,5-d]azepine-9-carboxylic acid (3-amino-propyl)-amide]
≤ 500	CNCCCc1ccc2c(c1)NC(=O)Cc1cnc(Nc3ccc(OC)c(OC)c3)nc1-2 [Compound I-87, 2-(3,4-Dimethoxy-phenylamino)-9-(3-methylamino-propyl)-5H,7H-benzo[b]pyrimido[4,5-d]azepin-6-one]
≤ 500	COc1ccc(Nc2ncc3c(n2)-c2ccc(C(=O)O)cc2NC(=O)C3)cc1OC [Compound I-53, 2-(3,4-dimethoxy-phenylamino)-6-oxo-6,7-dihydro-5H-benzo[b]pyrimido[4,5-d]azepine-9-carboxylic acid]
≤ 5000	COc1ccc(Nc2ncc3c(n2)-c2cc(Br)ccc2NC(=O)C3)cc1OC [Compound I-18, 10-Bromo-2-(3,4-dimethoxy-phenylamino)-5H,7H-benzo[b]pyrimido[4,5-d]azepin-6-one]
≤ 500	Cc1ccc2c(c1)NC(=O)Cc1cnc(Nc3ccc(C(=O)O)cc3)nc1-2 [Compound I-9, 4-(9-Methyl-6-oxo-6,7-dihydro-5H-benzo[b]pyrimido[4,5-d]azepin-2-ylamino)-benzoic acid]
≤ 500	COc1ccc(Nc2ncc3c(n2)-c2ccc(C#CCN(C)C)cc2NC(=O)C3)cc1OC [Compound I-91, 2-(3,4-Dimethoxy-phenylamino)-9-(3-dimethylamino-prop-1-ynyl)-5H,7H-benzo[b]pyrimido[4,5-d]azepin-6-one]
≤ 500	COc1ccc(Nc2ncc3c(n2)-c2ccc(C)cc2NC(=O)C3)cc1OC [Compound I-42, 2-(3,4-Dimethoxy-phenylamino)-9-methyl-5H,7H-benzo[b]pyrimido[4,5-d]azepin-6-one]
≤ 500	NCC#Cc1cccc(Nc2ncc3c(n2)-c2ccc(Cl)cc2NC(=O)C3)c1 [Compound I-67, 2-[3-(3-Amino-prop-1-ynyl)-phenylamino]-9-chloro-5H,7H-benzo[b]pyrimido[4,5-d]azepin-6-one]
≤ 500	COc1ccc(Nc2ncc3c(n2)-c2ccc(CCCN(C)C)cc2NC(=O)C3)cc1OC [Compound I-88, 2-(3,4-Dimethoxy-phenylamino)-9-(3-dimethylamino-propyl)-5H,7H-benzo[b]pyrimido[4,5-d]azepin-6-one]
≤ 500	C#Cc1ccc2c(c1)NC(=O)Cc1cnc(Nc3ccc(OC)c(OC)c3)nc1-2 [Compound I-33, 2-(3,4-dimethoxy-phenylamino)-9-ethynyl-5H,7H-benzo[b]pyrimido[4,5-d]azepin-6-one]

Continued, compound first:

Structure (SMILES)	IC50 [nM]
NCCNC(=O)c1cccc(Nc2ncc3c(n2)-c2ccc(Cl)cc2NC(=O)C3)c1 [Compound I-62, N-(2-Amino-ethyl)-3-(9-chloro-6-oxo-6,7-dihydro-5H-benzo[b]pyrimido[4,5-d]azepin-2-ylamino)-benzamide]	≤ 500
COc1ccc(Nc2ncc3c(n2)-c2ccc(CCCN)cc2NC(=O)C3)cc1OC [Compound I-50, 9-(3-Amino-propyl)-2-(3,4-dimethoxy-phenylamino)-5H,7H-benzo[b]pyrimido[4,5-d]azepin-6-one]	≤ 500
COc1ccc(Nc2ncc3c(n2)-c2ccc(C#CCN4CCCC4)cc2NC(=O)C3)cc1OC [Compound I-32, 2-(3,4-Dimethoxy-phenylamino)-9-(3-pyrrolidin-1-yl-prop-1-ynyl)-5H,7H benzo[b]pyrimido[4,5-d]azepin-6-one]	≤ 500
COc1ccc(Nc2ncc3c(n2)-c2ccc(CCCN4CCCC4)cc2NC(=O)C3)cc1OC [Compound I-49, 2-(3,4-Dimethoxy-phenylamino)-9-(3-pyrrolidin-1-yl-propyl)-5H,7H-benzo[b]-pyrimido[4,5-d]azepin-6-one]	≤ 500
CCc1ccc2c(c1)NC(=O)Cc1cnc(Nc3ccc(OC)c(OC)c3)nc1-2 [Compound I-37, 2-(3,4-Dimethoxy-phenylamino)-9-ethyl-5H,7H-benzo[b]pyrimido[4,5-d]azepin-6-one]	≤ 500
COc1ccc(Nc2ncc3c(n2)-c2ccc(C(=O)NCCN)cc2NC(=O)C3)cc1OC [Compound I-71, 2-(3,4-Dimethoxy-phenylamino)-6-oxo-6,7-dihydro-5H-benzo[b]pyrimido[4,5-d]azepine-9-carboxylic acid (2-amino-ethyl)-amide]	≤ 500
COc1ccc(Nc2ncc3c(n2)-c2ccccc2NC(=O)C3)cc1OC [Compound I-27, 2-(3,4-Dimethoxy-phenylamino)-5H,7H-benzo[b]pyrimido[4,5-d]azepin-6-one]	≤ 500
CN1C(=O)Cc2cnc(Nc3ccc(C(=O)O)cc3)nc2-c2ccc(Cl)cc21 [Compound I-7, 4-(9-Chloro-7-methyl-6-oxo-6,7-dihydro-5H-benzo[b]pyrimido[4,5-d]azepin-2-ylamino)-benzoic acid]	≤ 500
COc1ccc(Nc2ncc3c(n2)-c2ccc(C(N)=O)cc2NC(=O)C3)cc1OC [Compound I-70, 2-(3,4-dimethoxy-phenylamino)-6-oxo-6,7-dihydro-5H-benzo[b]pyrimido[4,5-d]azepine-9-carboxylic acid amide]	≤ 500
O=C1Cc2cnc(Nc3cccc(C#CCN4CCCC4)c3)nc2-c2ccc(Cl)cc2N1 [Compound I-89, 9-Chloro-2-[3-(3-pyrrolidin-1-yl-prop-1-ynyl)-phenylamino]-5H,7H-benzo[b]-pyrimido[4,5-d]azepin-6-one]	≤ 500
NCCc1cccc(Nc2ncc3c(n2)-c2ccc(Cl)cc2NC(=O)C3)c1 [Compound I-86, 2-[3-(2-Amino-ethyl)-phenylamino]-9-chloro-5H,7H-benzo[b]pyrimido[4,5-d]azepin-6-one]	≤ 500
O=C1Cc2cnc(Nc3ccc(C#CCN4CCCC4)cc3)nc2-c2ccc(Cl)cc2N1 [Compound I-47, 9-Chloro-2-[4-(3-pyrrolidin-1-yl-prop-1-ynyl)-phenylamino]-5H,7H-benzo[b]-pyrimido[4,5-d]azepin-6-one]	≤ 500
O=C(O)c1ccc(Nc2ncc3c(n2)-c2ccc(Cl)cc2N(c2ccccc2)C(=O)C3)cc1 [Compound I-10, 4-(9-Chloro-6-oxo-7-phenyl-6,7-dihydro-5H-benzo[b]pyrimido[4,5-d]azepin-2-ylamino)-benzoic acid]	≤ 500
CCCc1ccc2c(c1)NC(=O)Cc1cnc(Nc3ccc(OC)c(OC)c3)nc1-2 [Compound I-82, 2-(3,4-Dimethoxy-phenylamino)-9-propyl-5H,7H-benzo[b]pyrimido[4,5-d]azepin-6-one]	≤ 500
COc1ccc(Nc2ncc3c(n2)-c2ccc(C(=O)NCCCCN)cc2NC(=O)C3)cc1OC [Compound I-73, 2-(3,4-Dimethoxy-phenylamino)-6-oxo-6,7-dihydro-5H-benzo[b]pyrimido[4,5-d]azepine-9-carboxylic acid (4-amino-butyl)-amide]	≤ 500
